Laboratory results: PubChem BioAssay AID1259407 (Chemical Carcinogenesis Research Information System (CCRIS), 2018)
Active and inactive are the calls of the source. No rule for the calls is given here.

System: CCRIS mutagenicity, Ames/micronucleus/aberration tests
Test: CCRIS mutagenicity studies
[1] = Test System: AMES SALMONELLA TYPHIMURIUM, Strain/Indicator: TA98, Metabolic Activation: NONE, Method: PREINCUBATION
[2] = Test System: AMES SALMONELLA TYPHIMURIUM, Strain/Indicator: TA98, Metabolic Activation: NONE, Method: STANDARD PLATE
[3] = Test System: AMES SALMONELLA TYPHIMURIUM, Strain/Indicator: TA98, Metabolic Activation: RAT, LIVER, S-9, AROCLOR 1254, Method: PREINCUBATION
[4] = Test System: AMES SALMONELLA TYPHIMURIUM, Strain/Indicator: TA100, Metabolic Activation: NONE, Method: STANDARD PLATE
[5] = Test System: AMES SALMONELLA TYPHIMURIUM, Strain/Indicator: TA1535, Metabolic Activation: NONE, Method: STANDARD PLATE
[6] = Test System: AMES SALMONELLA TYPHIMURIUM, Strain/Indicator: TA1537, Metabolic Activation: NONE, Method: STANDARD PLATE
[7] = Test System: AMES SALMONELLA TYPHIMURIUM, Strain/Indicator: TA100, Metabolic Activation: NONE, Method: PREINCUBATION
[8] = Test System: AMES SALMONELLA TYPHIMURIUM, Strain/Indicator: TA1535, Metabolic Activation: NONE, Method: PREINCUBATION
[9] = Test System: AMES SALMONELLA TYPHIMURIUM, Strain/Indicator: TA1537, Metabolic Activation: NONE, Method: PREINCUBATION
[10] = Test System: AMES SALMONELLA TYPHIMURIUM, Strain/Indicator: TA98, Metabolic Activation: RAT, LIVER, S-9, AROCLOR 1254, Method: STANDARD PLATE
[11] = Test System: AMES SALMONELLA TYPHIMURIUM, Strain/Indicator: TA100, Metabolic Activation: RAT, LIVER, S-9, AROCLOR 1254, Method: STANDARD PLATE

## O=[N+]([O-])c1ccc(Nc2ccc(N=C=S)cc2)cc1
[1]
  mutagenic call: inactive; negative
[2]
  mutagenic call: inactive; negative
[3]
  mutagenic call: inactive; negative
Test System: AMES SALMONELLA TYPHIMURIUM, Strain/Indicator: TA98, Metabolic Activation: RAT, LIVER, S-9, AROCLOR 1254 OR PHENOBARBITOL, Method: STANDARD PLATE
  mutagenic call: inactive; negative
[4]
  mutagenic call: inactive; negative
Test System: AMES SALMONELLA TYPHIMURIUM, Strain/Indicator: TA100, Metabolic Activation: RAT, LIVER, S-9, AROCLOR 1254 OR PHENOBARBITOL, Method: STANDARD PLATE
  mutagenic call: inactive; negative
[5]
  mutagenic call: inactive; negative
Test System: AMES SALMONELLA TYPHIMURIUM, Strain/Indicator: TA1535, Metabolic Activation: RAT, LIVER, S-9, AROCLOR 1254 OR PHENOBARBITOL, Method: STANDARD PLATE
  mutagenic call: inactive; negative
[6]
  mutagenic call: inactive; negative
Test System: AMES SALMONELLA TYPHIMURIUM, Strain/Indicator: TA1537, Metabolic Activation: RAT, LIVER, S-9, AROCLOR 1254 OR PHENOBARBITOL, Method: STANDARD PLATE
  mutagenic call: inactive; negative
Test System: AMES SALMONELLA TYPHIMURIUM, Strain/Indicator: TA1538, Metabolic Activation: NONE, Method: STANDARD PLATE
  mutagenic call: inactive; negative
Test System: AMES SALMONELLA TYPHIMURIUM, Strain/Indicator: TA1538, Metabolic Activation: RAT, LIVER, S-9, AROCLOR 1254 OR PHENOBARBITOL, Method: STANDARD PLATE
  mutagenic call: inactive; negative

## COC12OOC1(C)Oc1ccccc12 (stereo not drawn)
[7]
  mutagenic call: active; positive

## Oc1cc(O)c2cc(O)c(-c3cc(O)c(O)c(O)c3)[o+]c2c1
[1]
  mutagenic call: inactive; negative
[3]
  mutagenic call: inactive; negative
[7]
  mutagenic call: inactive; negative
Test System: AMES SALMONELLA TYPHIMURIUM, Strain/Indicator: TA100, Metabolic Activation: RAT, LIVER, S-9, AROCLOR 1254, Method: PREINCUBATION
  mutagenic call: inactive; negative
[8]
  mutagenic call: inactive; negative
Test System: AMES SALMONELLA TYPHIMURIUM, Strain/Indicator: TA1535, Metabolic Activation: RAT, LIVER, S-9, AROCLOR 1254, Method: PREINCUBATION
  mutagenic call: inactive; negative
[9]
  mutagenic call: inactive; negative
Test System: AMES SALMONELLA TYPHIMURIUM, Strain/Indicator: TA1537, Metabolic Activation: RAT, LIVER, S-9, AROCLOR 1254, Method: PREINCUBATION
  mutagenic call: inactive; negative
Test System: AMES SALMONELLA TYPHIMURIUM, Strain/Indicator: TA1538, Metabolic Activation: NONE, Method: PREINCUBATION
  mutagenic call: inactive; negative
Test System: AMES SALMONELLA TYPHIMURIUM, Strain/Indicator: TA1538, Metabolic Activation: RAT, LIVER, S-9, AROCLOR 1254, Method: PREINCUBATION
  mutagenic call: inactive; negative

## N.N.O=C([O-])C1(C(=O)[O-])CCC1.[Pt+4]
[1]
  mutagenic call: inactive; negative
[2]
  mutagenic call: inactive; negative
[10]
  mutagenic call: inactive; negative
Test System: AMES SALMONELLA TYPHIMURIUM, Strain/Indicator: TA98, Metabolic Activation: RAT, LIVER, S-9, PHENOBARBITAL AND 5,6-BENZOFLAVONE, Method: PREINCUBATION
  mutagenic call: inactive; negative
[7]
  mutagenic call: inactive; negative
[4]
  mutagenic call: inactive; negative
[11]
  mutagenic call: inactive; negative
Test System: AMES SALMONELLA TYPHIMURIUM, Strain/Indicator: TA100, Metabolic Activation: RAT, LIVER, S-9, PHENOBARBITAL AND 5,6-BENZOFLAVONE, Method: PREINCUBATION
  mutagenic call: inactive; negative
Test System: AMES SALMONELLA TYPHIMURIUM, Strain/Indicator: TA102, Metabolic Activation: NONE, Method: STANDARD PLATE
  mutagenic call: active; positive
Test System: AMES SALMONELLA TYPHIMURIUM, Strain/Indicator: TA102, Metabolic Activation: RAT, LIVER, S-9, AROCLOR 1254, Method: STANDARD PLATE
  mutagenic call: active; positive
[8]
  mutagenic call: inactive; negative
Test System: AMES SALMONELLA TYPHIMURIUM, Strain/Indicator: TA1535, Metabolic Activation: RAT, LIVER, S-9, PHENOBARBITAL AND 5,6-BENZOFLAVONE, Method: PREINCUBATION
  mutagenic call: inactive; negative
[9]
  mutagenic call: inactive; negative
Test System: AMES SALMONELLA TYPHIMURIUM, Strain/Indicator: TA1537, Metabolic Activation: RAT, LIVER, S-9, PHENOBARBITAL AND 5,6-BENZOFLAVONE, Method: PREINCUBATION
  mutagenic call: inactive; negative
Test System: CHINESE HAMSTER, Strain/Indicator: V-79/6-THIOGUANINE (HGPRT), Metabolic Activation: NONE, Method: STANDARD PLATE
  mutagenic call: active; positive
Test System: E.COLI, Strain/Indicator: WP2 UVRA, Metabolic Activation: NONE, Method: PREINCUBATION
  mutagenic call: inactive; negative
Test System: E.COLI, Strain/Indicator: WP2 UVRA, Metabolic Activation: RAT, LIVER, S-9, PHENOBARBITAL AND 5,6-BENZOFLAVONE, Method: PREINCUBATION
  mutagenic call: inactive; negative

## c1cc2c3c(cccc3c1)C1NC21 (stereo not drawn)
[2]
  mutagenic call: active; positive
[4]
  mutagenic call: active; positive
[6]
  mutagenic call: active; positive

## ClC(Cl)=C(Cl)C(Cl)=C(Cl)Cl
End Point: IN VITRO CHROMOSOMAL ABERRATIONS, Test System: CHINESE HAMSTER OVARY CELLS, Metabolic Activation: NONE
  mutagenic call: inactive; negative
End Point: IN VITRO CHROMOSOMAL ABERRATIONS, Test System: CHINESE HAMSTER OVARY CELLS, Metabolic Activation: RAT, LIVER, S-9, AROCLOR 1254
  mutagenic call: inactive; negative
End Point: IN VITRO CHROMOSOMAL ABERRATIONS, Test System: CHL/IU CELLS, Metabolic Activation: NONE
  mutagenic call: active; positive (structural changes)
End Point: IN VITRO MICRONUCLEUS, Test System: CHL/IU CELLS, Metabolic Activation: NONE
  mutagenic call: active; positive
[7]
  mutagenic call: inactive; negative
[4]
  mutagenic call: active; positive
Test System: AMES SALMONELLA TYPHIMURIUM, Strain/Indicator: TA100, Metabolic Activation: RAT, LIVER, MICROSOMES AND GLUTATHIONE, Method: PREINCUBATION
  mutagenic call: active; positive
Test System: AMES SALMONELLA TYPHIMURIUM, Strain/Indicator: TA100, Metabolic Activation: RAT, LIVER, S-9, AROCLOR 1254 (30%), Method: PREINCUBATION
  mutagenic call: active; positive
[11]
  mutagenic call: active; positive

## [N-]=[N+]=NC[C@@H](O)[C@H](O)[C@H](O)[C@@H](O)C(=O)O
[2]
  mutagenic call: inactive; negative
[4]
  mutagenic call: active; positive

## CC(=O)C(Cl)(Cl)Cl
[2]
  mutagenic call: active; positive
[10]
  mutagenic call: active; positive
Test System: AMES SALMONELLA TYPHIMURIUM, Strain/Indicator: TA100, Metabolic Activation: NONE, Method: FLUCTUATION TEST
  mutagenic call: active; positive
[4]
  mutagenic call: active; positive
Test System: AMES SALMONELLA TYPHIMURIUM, Strain/Indicator: TA100, Metabolic Activation: RAT, LIVER, S-9, AROCLOR 1254, Method: FLUCTUATION TEST
  mutagenic call: inactive; negative
[11]
  mutagenic call: active; positive
[5]
  mutagenic call: active; positive
Test System: AMES SALMONELLA TYPHIMURIUM, Strain/Indicator: TA1535, Metabolic Activation: RAT, LIVER, S-9, AROCLOR 1254, Method: STANDARD PLATE
  mutagenic call: active; positive
[6]
  mutagenic call: inactive; negative
Test System: AMES SALMONELLA TYPHIMURIUM, Strain/Indicator: TA1537, Metabolic Activation: RAT, LIVER, S-9, AROCLOR 1254, Method: STANDARD PLATE
  mutagenic call: inactive; negative

## Cc1ccc(NC(=O)N(C)C)cc1Cl
Test System: AMES SALMONELLA TYPHIMURIUM, Strain/Indicator: TA98, Metabolic Activation: IMMATURE CARP LIVER S-9, 3-METHYLCHOLANTHRENE, Method: STANDARD PLATE
  mutagenic call: inactive; negative
[2]
  mutagenic call: inactive; negative
Test System: AMES SALMONELLA TYPHIMURIUM, Strain/Indicator: TA100, Metabolic Activation: IMMATURE CARP LIVER S-9, 3-METHYLCHOLANTHRENE, Method: STANDARD PLATE
  mutagenic call: inactive; negative
[4]
  mutagenic call: inactive; negative
